The source of these data is US20050080113A1, “Medicinal compositions” (priority 2001, published 2005).

One may read the melting point as the temperature, or range, at which the solid turns liquid.

Molecules are shown by their SMILES.

Data set [1] deals with TNF-α production. As to the kind of experiment: Measurement of inhibiting activity of TNF-α production in LPS-stimulated THP-1 cells, ELISA (Reference Example C 2). It is filed as cell-based. Particulars: Homo sapiens, LPS 5 μg/mL, 4 hours, read-out: IC50 (concentration necessary for inhibiting TNF-α production by 50%). Here is the method: (§1) Measurement of Inhibiting Activity of TNF-α Production
After THP-1 cells which had been cultured on PRMI 1640 medium (manufactured by Life Technologies, Inc.) containing 1% inactivated bovine fetal serum (manufactured by Life Technologies, Inc., U.S.A.) and 10 mM HEPES (pH 7.5) seeded on a 96 well-plate to 1×10^5 cells/well, 1 μL test compound dissolved in DMSO was added. After incubation at 37° C. for 1 hour in a CO2 incubator, LPS (Wako Pure Chemicals) was added to the final concentration 5 μg/mL. After cultured at 37° C. for 4 hours in a CO2 incubator, the supernatant was obtained by centrifugation. The concentration of TNF-α in the supernatant was measured by ELISA (R&D Systems, Quantikine Kit). The concentration (IC50 value) of the test compound necessary for inhibiting TNF-α production by 50% was calculated using PRIMS 2.01 (Graphpad Software).
Background: In an ELISA, binding on a coated surface is turned into a signal by an enzyme label.

Data set [2] deals with T1, human p38 MAP kinase (Homo sapiens, UniProt Q16539).
T1 construct: made in house; host or cells: Sf-21 insect cells, baculovirus (BAC-HP38 co-infected with BAC-caMKK3)
The data set can be described thus: Measurement of the p38 MAP kinase inhibitory activity, 32P uptake into Myelin Basic Protein (Reference Example F 2). The note with it: active form p38 MAP kinase, 30° C. 60 minutes, read-out: IC50 (p38 MAP kinase inhibitory activity, uptake of 32P into acid insoluble fraction). It is filed as biochemical. The procedure:
The genetic manipulations described below were according to the methods described in the book (Maniatis et al., Molecular Cloning, Cold Spring Harbor Laboratory, 1989) or a method described in the protocol attached to the reagent.
(1) Cloning of Human p38 MAP Kinase Gene and Preparation of Recombinant Baculovirus
Cloning of human p38 MAP kinase gene was performed by a PCR method using a primer set P38 U: 5′-[…]-3′ [SEQ ID NO:9] and PAG-L: 5′-[…]-3′ [SEQ ID NO:10] made by reference to the base sequence of p38 MAP kinase gene reported by Han et al. (Science 265 (5173), 808 811 (1994)) and employing kidney cDNA (Toyobo, QUICK-Clone cDNA) as a template.
A PCR reaction was performed by a Hot Start method using AmpliWax PCR Gem 100 (Takara Shuzo). As the lower mixed solution, 2 μL 10×LA PCR Buffer, 3 μL 2.5 mM dNTP solution, each 2.5 μL of 12.5 μM primer solution, and 10 μL sterile distilled water were mixed. As the upper mixed solution, 1 μL human cardiac cDNA (1 ng/mL) as a template, 3 μL 10×LA PCR Buffer, 1 μL 2.5 mM dNTP solution, 0.5 μL TaKaRa LA Taq DNA polymerase (Takara Shuzo), and 24.5 μL sterile distilled water were mixed. One AmpliWax PCR Gem 100 (Takara Shuzo) was added to the prepared lower mixed solution to treat at 70° C. for 5 minutes and for 5 minutes in an ice and, thereafter, the upper mixed solution was added to prepare a reaction solution for PCR. A tube containing the reaction solution was set at a thermal cycler (Perkin Elmer), which was treated at 95° C. for 2 minutes. Further, after repeating 35 times a cycle of 15 seconds at 95° C. and 2 minutes at 68° C., treatment was performed at 72° C. for 8 minutes. The resulting PCR product was subjected to agarose gel (1%) electrophoresis, 1.1 kb DNA fragment containing p38 MAP kinase gene was recovered from the gel and, thereafter, which was inserted into pT7Blue-T vector (Takara Shuzo) to make the plasmid pHP38.
The 4.8 kb XhoI-KpnI fragment of the plasmid pFASTBAC1 (CIBCOBRL) and the 1.1 kb XhoI-Kpn fragment of the above plasmid pHP38 were ligated to make the plasmid pFBHP38.
The plasmid pFBHP38 and BAC-TO-BAC Baculovirus Expression System (GIBCOBRL) were used to prepare the recombinant Baculovirus virusstock BAC-HP38.
(2) Cloning of Human MKK3 Gene and Preparation of Recombinant Baculovirus
Cloning of human MKK3 gene was performed by a PCR method using a primer set MKK-U: 5′-[…]-3′ [SEQ ID NO:11] and MKK-L: 5′-[…]-3′ [SEQ ID NO:12] made by reference to the base sequence of MKK3 gene reported by Derijard, B. et al., Science 267 (5198), 682 685 (1995) and using kidney cDNA (Toyobo, QUICK-Clone cDNA).
A PCR reaction was performed by a Hot Start method using AmpliWax PCR Gem 100 (Takara Shuzo). As the lower mixed solution, 2 μL 10×LA PCR Buffer, 3 μL 2.5 mM dNTP solution, each 2.5 μL of 12.5 μM primer solution, and 10 μL sterile distilled water were mixed. As the upper mixed solution, 1 μL human kidney cDNA (1 ng/mL), 3 μL 10×LA PCR Buffer, 1 μL 2.5 mM dNTP solution, 0.5 μL TaKaRa LA taq DNA polymerase (Takara Shuzo) and 24.5 μL sterile distilled water were mixed. One AmpliWax PCR Gem 100 (Takara Shuzo) was added to the prepared lower mixed solution to treat at 70° C. for 5 minutes and for 5 minutes in ice and, thereafter, the upper mixed solution was added to prepare a reaction solution for PCR. A tube containing the reaction solution was set at a thermal cycler (Perkin Elmer), which was treated at 95° C. for 2 minutes. Further, after repeating 35 times a cycle of 15 seconds at 95° C. and 2 minutes at 68° C., treatment was performed at 72° C. for 8 minutes. The resulting PCR product was subjected to agarose gel (1%) electrophoresis, 1.0 kb DNA fragment containing MKK3 gene was recovered from the gel and, thereafter, which was inserted into pT7Blue-T vector (Takara Shuzo) to make the plasmid pHMKK3. […]

Data set [3] relates to TNF-α production. As to the kind of experiment: Measurement of inhibiting activity of TNF-α production in LPS-stimulated THP-1 cells, ELISA (Reference Example F 3). In kind it is cell-based. The note with it: Homo sapiens, LPS 5 μg/mL, 4 hours, ELISA (R&D System). The procedure:
as §1
After THP-1 cells which had been cultured in PRMI 1640 medium (manufactured by Life Technologies, Inc.) containing 1% non-activated bovine fetal serum (manufactured by Life Technologies, Inc., U.S.A.) and 10 mM HEPES (pH 7.5) seeded on a 96 well plate to 1×10^5 cells/well, 1 μL test compound dissolved in DMSO was added to there. After incubation at 37° C. for 1 hour in a CO2 incubator, LPS (Wako Pure Chemicals) was added to the final concentration 5 μg/mL. After cultured at 37° C. for 4 hours in a CO2 incubator, the supernatant was obtained by centrifugation. The concentration of TNF-α in the supernatant was measured with ELISA (R&D System, Quantikine Kit). The concentration (IC50 value) necessary for inhibiting TNF-α production by 50% was calculated by PRIMS 2.01 (Graphpad Software).

Data set [4] has as its system osteoclast formation in mouse bone marrow cells. As to the kind of experiment: Inhibitory action of osteoclast formation (TRAP positive multinucleated cells, bone marrow cell culture), Example 2. In kind it is cell-based. Particulars: for Osteoclast count (/well): 6 days, TRAP positive multinucleated cells, average ± standard deviation (N = 4-5). Here is the method:
Bone marrow cells were collected from the tibia of 8-week-old male ddY mouse and suspended in αMEM medium containing 10% FBS and sown in a 24 well plate at a density of 10^6 cells/0.5 ml/well. After static culture overnight, the medium was changed to the above-mentioned medium containing 10^−8 M 1α, 25 (OH)2D3 or Reference Example D compound 16 1 at 0.01, 0.1, 1 or 10 μM, respectively and further cultured for 6 days. After the completion of the culture, the cells were fixed and subjected to staining of tartrateresistant acid phosphatase (TRAP), which is a differentiation index of osteoclast, and TRAP positive multinucleated cells with three or more nuclei were counted as osteoclasts with a microscope.

Data set [5] in a line: Test using rat yeast-induced pain model animal (pain threshold, pressure device), Example 1. In kind it is in vivo. Particulars: oral, pain threshold 2 hours after administration. Here is the method: Male Sprague-Dawley rats (4 week-old, Clear Japan) were used. A 20% yeast physiological saline solution (0.1 ml) was subcutaneously injected into right hind pedal sole to induce inflammation in the right hind pedal sole. One hour later, 0.5% aqueous methyl cellulose or Reference Example D compound 16 1 suspended in 0.5% aqueous methyl cellulose was orally administered (0.5 ml/100 g body weight). After 2 hours from sample administration, pain threshold value was measured based on false escape reaction using a pressure device. A group contained 6 rats.

T1 sequence (Q16539 whole entry): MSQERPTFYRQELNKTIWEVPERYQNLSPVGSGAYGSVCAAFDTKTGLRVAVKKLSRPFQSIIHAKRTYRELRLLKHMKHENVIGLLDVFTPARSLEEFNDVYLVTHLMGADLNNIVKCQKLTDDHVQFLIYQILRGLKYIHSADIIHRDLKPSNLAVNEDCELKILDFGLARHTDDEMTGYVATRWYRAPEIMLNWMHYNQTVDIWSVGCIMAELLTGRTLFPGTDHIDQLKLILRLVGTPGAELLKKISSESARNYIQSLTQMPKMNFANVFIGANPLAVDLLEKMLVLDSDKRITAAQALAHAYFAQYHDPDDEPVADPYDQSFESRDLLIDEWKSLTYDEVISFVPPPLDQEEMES

On to `CNc1nc(-c2ccc(OC)cc2)c(-c2ccncc2)s1` [13-16, N-methyl [4-(4-methoxyphenyl)-5-(4-pyridyl)-1,3-thiazol-2-yl]amine], for which the melting point was 177 to 178 °C. In addition, the IC50 in data set [1] stood at 140 nM.

As for `CNc1nc(-c2ccc(Cl)cc2)c(-c2ccncc2)s1` [13-70, N-methyl [4-(4-chlorophenyl)-5-(4-pyridyl)-1,3-thiazol-2-yl]amine], the melting point lay within 224 to 225 °C. Also, in data set [1], the IC50 turned out to be 180 nM.

Turning to `COc1ccc(-c2nc(N)sc2-c2ccnc(NC(=O)c3ccccc3)c2)cc1` [D 4, N-[4-[2-amino-4-(4-methoxyphenyl)-1,3-thiazol-5-yl]-2-pyridyl]benzamide], the IC50 in data set [2] was determined as 20 nM; in data set [3], 14 nM.

On to `Cc1cc(C)cc(-c2nc(N)sc2-c2ccnc(NCc3ccccc3)c2)c1` [D 6, N-[4-[2-amino-4-(3,5-dimethylphenyl)-1,3-thiazol-5-yl]-2-pyridyl]benzylamine], for which the IC50 turned out to be 23 nM in data set [2] and 140 nM in data set [3].

As for `CCc1nc(-c2cccc(C)c2)c(-c2ccnc(NC(=O)c3ccccc3)c2)s1` [D 16-1, N-[4-[2-ethyl-4-(3-methylphenyl)-1,3-thiazol-5-yl]-2-pyridyl]benzamide], in data set [4] (0.01, 0.1, 1 or 10 μM), the number of osteoclasts entry is “decreased in a dose-dependent manner”. Also, the IC50 in data set [4] (144 h, mouse bone marrow cells, 1α,25(OH)2D3, 6 days culture, read-out: IC50 value against formation of osteoclast) was 300 nM. In addition, the formation of osteoclast entry in data set [4] (at 10 μM) is “barely observed”. Moreover, the “Osteoclast count (/well)” value is given as 183.8 ± 2.9 /well in data set [4] (concentration 0.01 μM, mouse bone marrow cells); 140.8 ± 7.6 /well in data set [4] (concentration 0.1 μM, mouse bone marrow cells); 72.4 ± 4.4 /well in data set [4] (concentration 1 μM, mouse bone marrow cells); 0.6 ± 0.4 /well in data set [4] (concentration 10 μM, mouse bone marrow cells). Also, the “concentration from which the action on osteoclast number was found significantly” value in data set [4] (mouse bone marrow cells, 0.01-10 μM tested) came out at 0.1 µM. Also, the antinociceptive effect entry in data set [5] is “dose-dependent antinociceptive effect”. Also, the “minimum effective dose (antinociceptive effect)” value in data set [5] was 10 mg/kg.
